The text below walks through data of publication PMC5384453, “A multi-functional PEGylated gold(III) compound: potent anti-cancer properties and self-assembly into nanostructures for drug co-delivery” (Chemical Science, 2016).

One data set has as its system HCT116 cells. In words: FITC-Annexin V staining and flow cytometry. Type of data set: cell-based, human. To be noted: HCT116, 2 μM, 24 h. How it is done: (§1) The induction of apoptosis of HCT116 and NCM460 cells by 1 was further studied using FITC-Annexin V staining. […] The quantity of apoptotic cells stained by FITC-Annexin V after treatment with 1 or Au1a was also investigated by flow cytometry. […]
(§2) with gold(III) complexes and FITC-annexin V staining. HCT116 (1×10 5 cells) and […]
(§3) annexin-binding buffer solution. The cells were then incubated with FITC-annexin V […]
(§4) at room temperature in dark for 15 min. The solution was then removed, and the cells were washed with annexin-binding buffer solution. Fluorescence images were then […]
(§5) in ice and analyzed by flow cytometry immediately. […]
(§6) staining and flow cytometry.
(In flow cytometry, cells or beads pass a laser one at a time.)

The subject of the next data set is NCM460 cells. In words: FITC-Annexin V staining and flow cytometry. It is filed as cell-based, human. To be noted: NCM460, 2 μM, 24 h. As for the experimental part:
as §1, §2, §3, §4, §5, §6

Data set [1] is described as follows: Systemic toxicity in nude mice bearing HCT116 xenografts (body weight, H&E histopathology, blood biochemistry). Type of data set: in vivo. To be noted: HCT116 xenograft nude mice. As for the experimental part: The anti-tumor experiments using mice were approved by the animal ethics committees of Jinan University and The University of Hong Kong. […]
every 2 days for 24 days. The control group received equal volume of PBS only.
During the treatment period, the tumor volume and body weight of the nude mice were measured per two days. The tumor volume was calculated by the equation:
Volume (mm3) = l×w2/2, where l and w were the length and width of the tumor. At the end of the treatment, the nude mice were sacrificed and the tumor weight was […]
H&E staining and immunohistochemical (IHC) analysis of mice tissues. For […]
formaldehyde, embedded with paraffin and sectioned. Subsequently, the tissues were stained with hematoxylin and eosin for histological observation under an optical microscope (magnification: 10×). The expression of p53, Ki67, VEGFR2 and TUNEL was determined by IHC methods as reported previously. S7
Hematological analysis of nude mice bearing HCT116 xenograft. The blood samples of mice without bearing HCT116 xenograft and xenograft-bearing mice treated with 1, 3 and PBS control were collected. The plasma was obtained by centrifuging the blood sample with speed at 3000 rpm. The plasma was then subjected to hematological analysis to determine biochemical indexes of alanine aminotransferase (ALT), asparatate aminotransferase (AST), globulin (GLB), blood urea nitrogen (BUN), uric acid (UA), creatinine (CREA), lactate dehydrogenase (LDH) and creatine kinase (CK) in blood of the mice.
A2780cis xenograft nude mice model was constructed by injecting 2.5×10^6 cells to the right back flank of female BALB/c nude mice. When the tumor volume […]
animal study. The A2780cis xenograft nude mice were randomly divided into 2 groups (n = 5 per group). 1 in PBS (4 mg/kg) or PBS solvent control were injected to the nude mice by intravenous injection once every 2–3 days for 13 days. During the treatment period, the tumor volume and body weight of the nude mice were measured

Data set [2] can be described thus: Hydrolysis in aqueous buffer solutions by 1H NMR. It is filed as physicochemical. To be noted: 24 h, 37 °C; pH 4 (1), pH 4 or 7.4 (2).
Data set [3] is described as follows: Dynamic light scattering of nanostructures in PBS. Type of data set: physicochemical. As for the experimental part: On the other hand, the almost neutral zeta potentials of the nanostructures of 1 and 2 validated the presence of PEG pendant in the shell of the nanostructures. The identity of gold species in the core of the nanostructures was supported by the good contrast of the core in the TEM images (Fig. 1c and S3a ^†) and energy-dispersive X-ray (EDX) spectra (Fig. 1f).
The gold content in NC1 was confirmed by EDX (Fig. 1g). […]
fetal bovine serum, ʟ-glutamine (2 mM) and penicillin/streptomycin (100 U/mL). […]
Physical measurements and instrumentation. 1H NMR spectra were recorded with a Bruker AVANCE 400 (400 MHz) or DPX-300 (300 MHz) Fourier transform NMR spectrometer at ambient temperature with tetramethylsilane (Me4Si) as an internal reference. MALDI-TOF mass spectra were recorded on a ABI4800 MALDI
TOF/TOF™ Analyzer using α-cyano-4-hydroxycinnamic acid with sodium trifluoroacetate as the matrix. Positive ion electrospray (ESI) mass spectra and ultra-performance liquid chromatography coupled quadrupole-time-of-flight mass spectrometry (UPLC-QTOF-MS) were recorded on a Waters Micromass Q-Tof
Premier quadrupole time-of-flight tandem mass spectrometer. Inductively coupled plasma mass spectra (ICP-MS) were recorded on Agilent 7500a inductively coupled plasma mass spectrometer (Agilent Technologies, CA, U.S.A.). […]

For `C1=Cc2nc1c(-c1ccccc1)c1ccc([n-]1)c(-c1ccccc1)c1nc(c(-c3ccccc3)c3ccc([n-]3)c2-c2ccccc2)C=C1.[Au+3].[Cl-]` [Au1a, [Au(TPP)]Cl, reference compound], the “percent of apoptotic cells (FITC-Annexin V, background corrected)” value was 39.6% in the data set with HCT116 cells and 39.3% with NCM460 cells.

As to `COC(=O)c1ccc(C2=C3C=CC(=N3)C(c3ccccc3)=c3ccc4[n]3[Au+][n]3c(ccc32)C(c2ccccc2)=C2C=CC(=N2)C=4c2ccccc2)cc1.[Cl-]` [Compound 3, [Au(TPP–COOCH3)]^+], the “blood biochemistry (organ damage indicators)” value in data set [1] (4 mg kg^–1 i.v., 24 days, ALT, GLB, BUN, CK for 1) was “significant damage in the lung, liver and kidney of the mice”. Further, in data set [1] (i.v., 24 days (3: 4 mg kg^–1)), the “histopathological analysis of tissues (H&E)” value is “damage in normal lung, liver and kidney tissues”.

As to “[Au(TPP–CONH–PEG5000–OCH3)]Cl [Compound 2]”, the “change in 1H NMR spectra after incubation in buffer” value in data set [2] is “no observable change in the NMR spectra”. Also, the “Intensity-averaged signals from dynamic light scattering (hydrodynamic diameter)” value in data set [3] is on record as 177.1 ± 81.2 nm.

For the molecule “[Au(TPP–COO–PEG5000–OCH3)]Cl [Compound 1]”, the “percent of apoptotic cells (FITC-Annexin V, background corrected)” value is given as 22.5% in the data set on HCT116 cells and 2.4% in the data set with NCM460 cells. Also, the “mouse death / body weight” value in data set [1] (2 or 4 mg kg^–1 i.v., 24 days) is listed as “no mouse death or significant loss in body weight”. The “change in 1H NMR spectra after incubation in buffer” value in data set [2] is listed as “disappearance of peaks from protons of –COOCH 2CH 2–”. For the same molecule, in data set [3], the “Intensity-averaged signals from dynamic light scattering (hydrodynamic diameter)” value worked out at 120.8 ± 7.2 nm.
